Laboratory results reported in the supplement of paper PMC6045584.
± gives the standard deviation of the averaged measurements.

Key:
BI-2536 = compound: CC[C@@H]1C(=O)N(C)c2cnc(Nc3ccc(C(=O)NC4CCN(C)CC4)cc3OC)nc2N1C1CCCC1 [BI-2536]; experiment: surviving fraction relative to DMSO-only wells; higher = less growth inhibition; conditions: exposure time: 5 days
Procedure, shortened: (§1)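 Surviving fraction was calculated by normalising CellTiter-Glo luminescence to the median of DMSO-only wells. Tumour cell lines in log phase were seeded in 384-well plates at 250–500 cells per well, and 24 hours later were exposed continuously for five days to inhibitors at 0.5, 1, 5, 10, 50, 100, 500 and 1000 nM.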

TIOGUANINE = compound: Nc1nc2[nH]cnc2c(=S)[nH]1 [TIOGUANINE]; experiment: as above; conditions: exposure time: 5 days
Procedure, shortened: as §1

Test System	surviving fraction (BI-2536; 0.5 nM)	surviving fraction (BI-2536; 1 nM)	surviving fraction (BI-2536; 5 nM)	surviving fraction (BI-2536; 10 nM)	surviving fraction (BI-2536; 50 nM)	surviving fraction (BI-2536; 100 nM)	surviving fraction (BI-2536; 500 nM)	surviving fraction (BI-2536; 1000 nM)	surviving fraction (TIOGUANINE; 0.5 nM)	surviving fraction (TIOGUANINE; 1 nM)	surviving fraction (TIOGUANINE; 5 nM)	surviving fraction (TIOGUANINE; 10 nM)	surviving fraction (TIOGUANINE; 50 nM)	surviving fraction (TIOGUANINE; 100 nM)	surviving fraction (TIOGUANINE; 500 nM)	surviving fraction (TIOGUANINE; 1000 nM)
CASKI CERVIX	0.739 ± 0.024	0.427 ± 0.068	0.0607 ± 0.011	0.0583 ± 0.0064	0.0967 ± 0.015	0.075	0.0153 ± 0.0021	0.0183 ± 0.00058	0.902 ± 0.091	0.902 ± 0.056	0.934 ± 0.029	0.952 ± 0.032	0.9923 ± 0.0092	1.01 ± 0.014	0.962 ± 0.037	0.839 ± 0.072
HSSYII SYNOVIAL	0.998 ± 0.053	0.944 ± 0.04	0.102 ± 0.023	0.0418 ± 0.0018	0.045 ± 0.0054	0.0367 ± 0.001	0.0423 ± 0.0025	0.0472 ± 0.00058	0.927 ± 0.055	0.911 ± 0.028	0.954 ± 0.05	0.92 ± 0.027	0.941 ± 0.055	0.972 ± 0.049	0.885 ± 0.02	0.842 ± 0.059
HCC78 LUNG	0.932 ± 0.33	0.781 ± 0.13	0.16 ± 0.03	0.091 ± 0.031	0.0883 ± 0.011	0.156 ± 0.023	0.112 ± 0.021	0.0973 ± 0.01	0.726 ± 0.091	0.781 ± 0.21	0.854 ± 0.13	0.685 ± 0.23	0.866 ± 0.086	0.853 ± 0.059	0.743 ± 0.2	0.773 ± 0.088
HCC1806 BREAST	0.932 ± 0.046	0.749 ± 0.07	0.05 ± 0.0082	0.0447 ± 0.026	0.126 ± 0.025	0.136 ± 0.0081	0.106 ± 0.0027	0.0743 ± 0.015	0.989 ± 0.061	1.1 ± 0.059	1.08 ± 0.11	1.08 ± 0.12	1.13 ± 0.15	1.13 ± 0.19	1.03 ± 0.12	0.952 ± 0.061
U2OS BONE	1.04 ± 0.027	1.05 ± 0.063	0.902 ± 0.023	0.302 ± 0.023	0.215 ± 0.0062	0.199 ± 0.01	0.188 ± 0.0087	0.171 ± 0.013	1.03 ± 0.058	1.06 ± 0.043	1.077 ± 0.007	1.04 ± 0.018	1.08 ± 0.05	1.06 ± 0.048	0.939 ± 0.014	0.732 ± 0.042
MDAMB361 BREAST	0.674 ± 0.046	0.617 ± 0.026	0.578 ± 0.051	0.637 ± 0.0066	0.565 ± 0.026	0.517 ± 0.013	0.245 ± 0.0072	0.21 ± 0.028	0.914 ± 0.011	0.845 ± 0.011	0.881 ± 0.0085	0.884 ± 0.062	0.846 ± 0.018	0.955 ± 0.054	0.882 ± 0.067	0.963 ± 0.043
LNCAP PROSTATE	1.05 ± 0.099	1.03 ± 0.08	0.0577 ± 0.0084	0.0533 ± 0.0055	0.113 ± 0.018	0.115 ± 0.028	0.141 ± 0.022	0.112 ± 0.013	0.933 ± 0.078	0.912 ± 0.028	0.955 ± 0.17	0.964 ± 0.09	1.07 ± 0.11	0.976 ± 0.085	0.971 ± 0.06	0.977 ± 0.07
SUM44 BREAST	0.797 ± 0.039	0.378 ± 0.025	0.163 ± 0.0069	0.166 ± 0.022	0.158 ± 0.0027	0.154 ± 0.013	0.162 ± 0.013	0.1503 ± 0.00058	0.946 ± 0.03	0.992 ± 0.046	1.04 ± 0.035	1.04 ± 0.028	1.03 ± 0.011	1.09 ± 0.086	0.97 ± 0.091	1.055 ± 0.0085
HOS BONE	1.02 ± 0.015	0.979 ± 0.008	0.203 ± 0.044	0.031 ± 0.0027	0.0337 ± 0.0029	0.023 ± 0.001	0.018 ± 0.001	0.0207 ± 0.00058	1 ± 0.011	0.9977 ± 0.0091	1.004 ± 0.0085	1.02 ± 0.032	1.05 ± 0.033	1.038 ± 0.0061	0.75 ± 0.037	0.612 ± 0.016
SAOS2 BONE	1.03 ± 0.036	0.875 ± 0.025	0.083 ± 0.0052	0.0753 ± 0.0023	0.146 ± 0.0046	0.194 ± 0.015	0.129	0.075	1 ± 0.024	0.966 ± 0.031	1.034 ± 0.0081	0.937 ± 0.096	1.15 ± 0.014	1.15 ± 0.097	1.02 ± 0.027	1.01 ± 0.047
HCT15 LARGE INTESTINE	1.08 ± 0.044	1.04 ± 0.011	1.07 ± 0.026	0.887 ± 0.032	0.334 ± 0.048	0.0687 ± 0.014	0.069 ± 0.004	0.0617 ± 0.0076	0.968 ± 0.012	0.913 ± 0.05	0.979 ± 0.016	0.967 ± 0.051	1.02 ± 0.067	1.06 ± 0.023	1.04 ± 0.015	0.995 ± 0.012
MDAMB436 BREAST	0.841 ± 0.027	0.649 ± 0.065	0.4 ± 0.048	0.27 ± 0.0028	0.331 ± 0.017	0.379 ± 0.032	0.394 ± 0.027	0.38 ± 0.04	0.892 ± 0.057	0.837 ± 0.05	0.864 ± 0.059	0.932 ± 0.028	1.03 ± 0.096	0.906 ± 0.13	0.921 ± 0.094	0.928 ± 0.065
HUO3N1 BONE	0.991 ± 0.0085	0.994 ± 0.071	0.6 ± 0.1	0.242 ± 0.035	0.211 ± 0.0099	0.204 ± 0.022	0.265 ± 0.014	0.303 ± 0.016	0.992 ± 0.071	1.02 ± 0.098	1.1 ± 0.059	0.98 ± 0.058	1.02 ± 0.019	1.06 ± 0.049	1.06 ± 0.055	1.02 ± 0.018
MDAMB134 BREAST	0.944 ± 0.11	0.699 ± 0.069	0.792 ± 0.03	0.835 ± 0.034	1.2 ± 0.058	1.101 ± 0.0092	0.788 ± 0.0092	0.644 ± 0.048	0.993 ± 0.11	1.04 ± 0.12	0.909 ± 0.017	0.928 ± 0.11	1.04 ± 0.0028	1.1 ± 0.17	0.88 ± 0.049	0.858 ± 0.073
JURKAT HAEMATOPOIETIC AND LYMPHOID TISSUE	1.04 ± 0.022	0.911 ± 0.015	0.028 ± 0.001	0.0257 ± 0.00058	0.0297 ± 0.00058	0.0217 ± 0.00058	0.0177 ± 0.00058	0.021	1.05 ± 0.034	1.07 ± 0.032	1.07 ± 0.04	1.043 ± 0.0097	1.02 ± 0.039	1.04 ± 0.018	1.01 ± 0.012	0.565 ± 0.013
CADOES1 SOFT TISSUE	1.04 ± 0.059	0.939 ± 0.059	0.872 ± 0.093	0.792 ± 0.12	0.193 ± 0.025	0.0877 ± 0.018	0.0517 ± 0.016	0.0513 ± 0.0051	0.965 ± 0.12	0.922 ± 0.059	0.93 ± 0.067	0.955 ± 0.045	0.989 ± 0.15	0.952 ± 0.097	0.842 ± 0.095	0.78 ± 0.048
SJSA1 BONE	1.01 ± 0.067	1.02 ± 0.068	0.882 ± 0.011	0.252 ± 0.033	0.174 ± 0.01	0.191 ± 0.0061	0.267 ± 0.02	0.236 ± 0.015	1.05 ± 0.038	1.05 ± 0.092	1.033 ± 0.0062	1.01 ± 0.035	1.1 ± 0.041	1.08 ± 0.036	1.016 ± 0.0081	0.912 ± 0.019
HCC70 BREAST	1.08 ± 0.026	0.933 ± 0.12	0.57 ± 0.047	0.35 ± 0.053	0.623 ± 0.041	0.795 ± 0.043	0.593 ± 0.042	0.391 ± 0.045	1.05 ± 0.03	0.896 ± 0.043	1.03 ± 0.069	1 ± 0.013	1.04 ± 0.13	1.02 ± 0.052	1.04 ± 0.059	1.04 ± 0.1
SYO1 SYNOVIAL	1.02 ± 0.015	0.884 ± 0.045	0.108 ± 0.036	0.0738 ± 0.015	0.0606 ± 0.0062	0.0441 ± 0.0071	0.0205 ± 0.0005	0.0188 ± 0.0014	0.941 ± 0.043	0.925 ± 0.042	0.917 ± 0.075	0.896 ± 0.021	0.785 ± 0.029	0.645 ± 0.043	0.411 ± 0.022	0.354 ± 0.028
VCAP PROSTATE	0.925 ± 0.13	0.243 ± 0.0099	0.0727 ± 0.012	0.0763 ± 0.015	0.154 ± 0.031	0.228 ± 0.031	0.07 ± 0.0027	0.0443 ± 0.013	1.04 ± 0.18	0.99 ± 0.11	1.11 ± 0.13	1.11 ± 0.12	1.14 ± 0.094	1.08 ± 0.11	0.973 ± 0.082	1.02 ± 0.15
MDAMB453 BREAST	0.994 ± 0.018	0.763 ± 0.052	0.178 ± 0.019	0.156 ± 0.025	0.173 ± 0.017	0.171 ± 0.0075	0.108 ± 0.031	0.0703 ± 0.042	1.01 ± 0.073	0.999 ± 0.053	1.04 ± 0.027	1.02 ± 0.04	1.08 ± 0.03	1.03 ± 0.029	0.98 ± 0.13	0.864 ± 0.09
